US9718790B2, “Triazine derivative and pharmaceutical composition having an analgesic activity comprising the same” (SHIONOGI & CO., LTD., priority 2010, dated 2017)

Biological target: human P2X3 receptor (Homo sapiens (Human), UniProt P56373)
Experiment: Evaluation of human P2X3 receptor inhibitory activity (Fluo-3 calcium fluorescence, FDSS 3000, ATP stimulation);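 further: stimulus was 50 nM ATP with fluorescence followed for 3 min, and the response per well was peak post-ATP fluorescence divided by the reading at measurement start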
Type: cell-based
Conditions: C6BU-1 cells stably expressing human P2X3 receptor

Chain of human P2X3 receptor (P56373 whole entry): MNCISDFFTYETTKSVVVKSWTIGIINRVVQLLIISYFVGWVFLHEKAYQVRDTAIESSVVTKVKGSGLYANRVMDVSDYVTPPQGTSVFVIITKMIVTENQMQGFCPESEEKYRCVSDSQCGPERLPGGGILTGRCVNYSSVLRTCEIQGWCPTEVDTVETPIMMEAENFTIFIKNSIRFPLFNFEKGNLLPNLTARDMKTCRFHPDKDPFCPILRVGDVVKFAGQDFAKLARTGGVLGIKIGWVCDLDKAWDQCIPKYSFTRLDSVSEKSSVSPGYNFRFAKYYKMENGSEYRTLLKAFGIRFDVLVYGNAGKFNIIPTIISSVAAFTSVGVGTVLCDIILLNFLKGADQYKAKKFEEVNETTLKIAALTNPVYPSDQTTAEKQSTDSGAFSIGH

Question: Which IC50 does the source give for `CCCOc1ccc(/N=c2\[nH]c(=O)n(C[C@H](C)C(=O)OC)c(=O)n2Cc2ccc(Cl)cc2)cc1Cl` [Compound I-0743] here?
Answer: The IC50 was 13 nM.

Question: Which IC50 does the source give for `CCCOc1ccc(/N=c2\[nH]c(=O)n([C@H](C)[C@H](C)C(=O)OC)c(=O)n2Cc2ccc(C)cc2)cc1` [Compound I-1313] here?
Answer: Its IC50 is 62 nM.

Question: `CCOC(=O)[C@H](CCn1c(=O)[nH]/c(=N\c2ccc(OC(C)C)c(C)c2)n(Cc2ccc(Cl)cc2)c1=O)NC(=O)OC(C)(C)C` [Compound I-0717, (S)-1-(4-chlorobenzyl)-3-(3-t-butoxycarbonylamino-3-ethoxycarbonyl-propyl)-6-(3-mehyl-4-isopropoxyphenylimino)-1,3,5-triazinane-2,4-dion] was tested. Which IC50 did it give?
Answer: The IC50 was 21 nM.

Question: How did the IC50 turn out when `COC(=O)[C@@H](C)[C@@H](C)n1c(=O)[nH]/c(=N\c2ccc(OC(C)C)c(C)c2)n(Cc2ccc(Cl)cc2)c1=O` [Compound I-0811] was run?
Answer: The IC50 was 40 nM.

Question: How did the IC50 turn out when `COc1cc(/N=c2\[nH]c(=O)n(CCCO)c(=O)n2Cc2ccc(Cl)cc2)ccc1OC(C)C` [Compound I-2002] was run?
Answer: Its IC50 is 8 nM.

Question: Which IC50 does the source give for `COC(=O)[C@H](C)Cn1c(=O)[nH]/c(=N\c2ccc(OC(C)C)c(C)c2)n(Cc2ccc(Cl)cc2)c1=O` [Compound I-0589] here?
Answer: The IC50 was 6 nM.

Question: `COC(=O)[C@@H](C)Cn1c(=O)[nH]/c(=N\c2cccc(OC)c2)n(Cc2ccc(C)cc2)c1=O` [Compound I-1201] was tested. Which IC50 did it give?
Answer: Its IC50 is 788 nM.

Question: Which IC50 does the source give for `CC(C)NC(=O)c1ccc(/N=c2\[nH]c(=O)n(C[C@H](C)C(=O)O)c(=O)n2Cc2ccc(Cl)cc2)cc1Cl` [Compound I-1414] here?
Answer: The IC50 was 986 nM.

Question: For `COC(=O)[C@@H](C)Cn1c(=O)[nH]/c(=N\c2cccc(C(C)C)c2)n(Cc2ccc(Cl)cc2)c1=O` [Compound I-0777], which IC50 is on record?
Answer: The IC50 was 116 nM.

Question: How did the IC50 turn out when `CCn1c(=O)[nH]/c(=N\c2ccc(Oc3cc(C(=O)OC)ncn3)cc2)n(Cc2ccc(Cl)cc2)c1=O` [Compound I-2206] was run?
Answer: Its IC50 is 12 nM.

Question: Which IC50 does the source give for `Cc1ccc(Cn2c(=O)n(C[C@H](C)C(=O)O)c(=O)[nH]/c2=N\c2ccc(Oc3ccnc(O)c3)cc2)cc1` [Compound I-1440] here?
Answer: Its IC50 is 6 nM.

Question: With `COC(=O)CCCn1c(=O)[nH]/c(=N\c2ccc(Oc3ccnc(C)c3)cc2)n(Cc2ccc(Cl)cc2)c1=O` [Compound I-1396] as the compound, how does the IC50 read?
Answer: The IC50 was 4 nM.

Question: With `Cc1ccc(Cn2c(=O)n(C)c(=O)[nH]/c2=N\c2ccc(Oc3cccc(C(=O)O)c3)cc2)cc1` [Compound I-2060] as the compound, how does the IC50 read?
Answer: The IC50 was 22 nM.

Question: Which IC50 does the source give for `CCCn1c(=O)[nH]/c(=N\c2ccc(Oc3ccc(C(=O)O)nc3)cc2)n(Cc2ccc(Cl)cc2)c1=O` [Compound I-2161] here?
Answer: The IC50 was 14 nM.

Question: `COC(=O)[C@@H](C)Cn1c(=O)[nH]/c(=N\c2ccc3ncccc3c2)n(Cc2ccc(Cl)cc2)c1=O` [Compound I-1318] was tested. Which IC50 did it give?
Answer: The IC50 was 544 nM.

Question: Which IC50 does the source give for `Cc1[nH]c2ccc(/N=c3\[nH]c(=O)n(C[C@H]4COC(C)(C)O4)c(=O)n3Cc3ccc(Cl)cc3)cc2c1C` [Compound I-2039] here?
Answer: Its IC50 is 9 nM.

Question: How did the IC50 turn out when `CCOC(=O)CCCn1c(=O)[nH]/c(=N\c2ccc(O)cc2)n(Cc2ccc(C)cc2)c1=O` [Compound I-1239] was run?
Answer: The IC50 was 732 nM.

Question: How did the IC50 turn out when `C[C@@H](Oc1ccc(/N=c2\[nH]c(=O)n(CCC(=O)NCC(F)(F)F)c(=O)n2Cc2ccc(Cl)cc2)cc1)C(F)(F)F` [Compound I-1958] was run?
Answer: Its IC50 is 16 nM.

Same assay, conditions: C6BU-1 cells stably expressing human P2X3 receptor, Fluo-3 fluorescence, FDSS 3000

Question: `C[C@@H](C(=O)O)[C@H](C)n1c(=O)[nH]/c(=N\c2ccc3nc(C4CC4)sc3c2)n(Cc2ccc(Cl)cc2)c1=O` [Compound I-1586] was tested. Which IC50 did it give?
Answer: The IC50 was 13 nM.

Question: For `COC(=O)c1cc(/N=c2\[nH]c(=O)n(CCC(=O)O)c(=O)n2Cc2ccc(C)cc2)cn1C` [Compound I-1879], which IC50 is on record?
Answer: Its IC50 is 128 nM.

Question: With `COC(=O)[C@H](C)[C@H](C)n1c(=O)[nH]/c(=N\c2ccc(OC(C)C)c(Cl)c2)n(Cc2ccc(C)cc2)c1=O` [Compound I-0928] as the compound, how does the IC50 read?
Answer: The IC50 was 14 nM.

Question: How did the IC50 turn out when `CCOc1ccc(/N=c2\[nH]c(=O)n([C@@H](C)[C@@H](C)C(=O)OC)c(=O)n2Cc2ccc(Cl)cc2)cc1Cl` [Compound I-0916] was run?
Answer: The IC50 was 19 nM.

Question: With `CC(C)N1C(=O)Cc2cc(/N=c3\[nH]c(=O)n([C@@H](C)[C@@H](C)C(=O)O)c(=O)n3Cc3ccc(Cl)cc3)ccc21` [Compound I-1779] as the compound, how does the IC50 read?
Answer: The IC50 was 203 nM.

Question: For `CC1(C)OC[C@H](Cn2c(=O)[nH]/c(=N\c3ccc(OCC4CC4)cc3)n(Cc3ccc(Cl)cc3)c2=O)O1` [Compound I-1854], which IC50 is on record?
Answer: The IC50 was 4 nM.

Question: Which IC50 does the source give for `COC(=O)[C@@H](C)Cn1c(=O)[nH]/c(=N\c2ccc(OC(F)F)c(Cl)c2)n(Cc2ccc(C)cc2)c1=O` [Compound I-1022] here?
Answer: The IC50 was 14 nM.

Same assay, conditions: human P2X3 receptor, Test Example 1

Question: With `Cc1ccc(Cn2c(=O)n(CCC(=O)O)c(=O)[nH]/c2=N\c2ccc(Oc3cccc(C(N)=O)n3)cc2)cc1` [Compound I-2683] as the compound, how does the IC50 read?
Answer: The IC50 was 12 nM.

Question: `CCOc1ccc(/N=c2\[nH]c(=O)n(CCC(=O)O)c(=O)n2Cc2ccc(C)cc2)cc1Cl` [Compound I-0882] was tested. Which IC50 did it give?
Answer: The IC50 was 100 nM.

Question: Which IC50 does the source give for `COC(=O)[C@@H](C)Cn1c(=O)[nH]/c(=N\c2ccc(C)c(C(F)(F)F)c2)n(Cc2ccc(Cl)cc2)c1=O` [Compound I-0841] here?
Answer: The IC50 was 150 nM.

Question: For `CCCOc1ccc(/N=c2\[nH]c(=O)n(C[C@H](CC)C(=O)OC)c(=O)n2Cc2ccc(Cl)cc2)cc1` [Compound I-0888], which IC50 is on record?
Answer: Its IC50 is 30 nM.

Question: With `Cc1cnc(Oc2ccc(/N=c3\[nH]c(=O)n(CC(=O)NCCO)c(=O)n3Cc3ccc(Cl)cc3)cc2)s1` [Compound I-2649] as the compound, how does the IC50 read?
Answer: Its IC50 is 6 nM.

Question: How did the IC50 turn out when `CC[C@@H](C)Oc1ccc(/N=c2\[nH]c(=O)n(C[C@H](C)C(=O)OC)c(=O)n2Cc2ccc(C)cc2)cc1` [Compound I-0824] was run?
Answer: Its IC50 is 18 nM.

Question: How did the IC50 turn out when `NC(=O)NC(=O)Cn1c(=O)[nH]/c(=N\c2ccc(Oc3ccon3)cc2)n(Cc2ccc(Cl)cc2)c1=O` [Compound I-2694] was run?
Answer: The IC50 was 3 nM.

Question: For `CCn1c(=O)[nH]/c(=N\c2ccc(Oc3cccc(/C=C/C(=O)O)c3)cc2)n(Cc2ccc(Cl)cc2)c1=O` [Compound I-2231], which IC50 is on record?
Answer: Its IC50 is 3 nM.

Question: How did the IC50 turn out when `CNC(=O)[C@H](CCO)n1c(=O)[nH]/c(=N\c2ccc(OC(C)C)c(C)c2)n(Cc2ccc(Cl)cc2)c1=O` [Compound I-0869] was run?
Answer: Its IC50 is 574 nM.

Question: `COCCn1c(=O)[nH]/c(=N\c2ccc(Oc3ccnc(C(=O)OC)c3)cc2)n(Cc2ccc(Cl)cc2)c1=O` [Compound I-2536] was tested. Which IC50 did it give?
Answer: The IC50 was 5 nM.

Question: Which IC50 does the source give for `Cn1c(=O)[nH]/c(=N\c2ccc(Oc3cccc(C#N)n3)cc2)n(Cc2ccc(Cl)cc2)c1=O` [Compound I-2374] here?
Answer: Its IC50 is 8 nM.

Question: How did the IC50 turn out when `O=C(O)c1cncc(Oc2ccc(/N=c3\[nH]c(=O)n(C4CCC4)c(=O)n3Cc3ccc(Cl)cc3)cc2)c1` [Compound I-2485] was run?
Answer: The IC50 was 8 nM.

Question: With `CCn1c(=O)[nH]/c(=N\c2ccc(Oc3ccc(C(=O)O)cn3)cc2)n(Cc2ccc(Cl)cc2)c1=O` [Compound I-2320] as the compound, how does the IC50 read?
Answer: Its IC50 is 6 nM.

Question: For `CCn1c(=O)[nH]/c(=N\c2ccc(Oc3ccnc(CN(C)C)c3)cc2)n(Cc2ccc(Cl)cc2)c1=O` [Compound I-2244], which IC50 is on record?
Answer: The IC50 was 59 nM.

Question: With `CCCOc1ccc(/N=c2\[nH]c(=O)n(CC(F)(F)C(=O)O)c(=O)n2Cc2ccc(C)cc2)cc1` [Compound I-0871] as the compound, how does the IC50 read?
Answer: Its IC50 is 40 nM.

Question: With `O=c1[nH]/c(=N\c2ccc(Oc3ccon3)c(F)c2)n(Cc2ccc(Cl)cc2)c(=O)n1CC(CO)CO` [Compound I-2439] as the compound, how does the IC50 read?
Answer: Its IC50 is 4 nM.

Question: Which IC50 does the source give for `CC(C)Cc1ccc(/N=c2\[nH]c(=O)n(C[C@H](C)C(=O)O)c(=O)n2Cc2ccc(Cl)cn2)cc1Cl` [Compound I-1540] here?
Answer: The IC50 was 52 nM.

Question: `CCOC(=O)CCn1c(=O)[nH]/c(=N\c2ccc3nc(C)sc3c2)n(Cc2ccc(Cl)cc2)c1=O` [Compound I-1518] was tested. Which IC50 did it give?
Answer: Its IC50 is 2 nM.

Question: Which IC50 does the source give for `Cc1cc(Oc2ccc(/N=c3\[nH]c(=O)n(C[C@@H](O)CO)c(=O)n3Cc3ccc(Cl)cc3)cc2)no1` [Compound I-2229] here?
Answer: Its IC50 is 23 nM.

Question: For `COC(=O)c1cc(Oc2ccc(/N=c3\[nH]c(=O)n(C)c(=O)n3Cc3ccc(Cl)cc3)cc2)ccn1` [Compound I-2377], which IC50 is on record?
Answer: Its IC50 is 15 nM.
